Test results from patent publication US5484778A, “Phthalocyanine photosensitizers for photodynamic therapy and methods for their use” (priority 1993, dated 1996).
Like-named read-outs stand apart in the source and are kept apart here.

Legend:
V79 cells [1] = test: Clonogenicity, killing of V79 cells using photodynamic therapy (Table 3); assay type: cell-based, Chinese hamster
Procedure: Using the cell culture methods described above, V79 cells Chinese hamster lung fibroblasts were treated with either 0.5 or 1.0 μM of the phthalocyanines listed in Table 3. About 18 hours thereafter, the cells were irradiated with increasing doses of 675 nm broad band red light from a 500 W tungsten-halogen lamp fitted with a 600 nm high pass filter, to determine the light dosage that would kill 90% of the phthalocyanine treated cells. Where 90% of the cells were not killed, the maximum percent of cells killed were determined, (expressed as % survival) and the related light dosage recorded.

V79 cells [2] = test: Uptake of additional phthalocyanines into V79 cells (Table 2); conditions: for Uptake into V79 cells: 18 hours; for dependence of uptake on phthalocyanine concentration: V79 cells, 1-4 μM; for Uptake into V79 cells, composite value (asterisk): asterisk: listed value is for 1 μM, average would be higher; for Uptake (from Table 2): repeated in Table 3; for Uptake into V79 cells, composite value: average of all data
Procedure: V79 cells Chinese hamster lung fibroblasts were cultured using the cell culture methods described above. […] When the filters were dry, the phthalocyanines were extracted into ethanol and the absorption determined at the peak wavelength, usually 668 nm.

L5178Y cells = test: Induction of apoptosis (DNA fragmentation) in L5178Y-R cells (Table 6); assay type: cell-based, mouse; conditions: for induction of apoptosis: 1 μM at a fluence of 30 kJ/m^2
Procedure: Mouse lymphoma L5178y-R (hereinafter also referred to as "LY-R") cells were grown in suspension culture as described in Ramakrishnan N., Oleinick, N. L. Clay, M. E., Horng, M. F., Antunez, A. R., and Evans H. H., DNA lesions and DNA degradation in mouse lymphoma L5178Y cells after photodynamic treatment sensitized by chloroaluminum phthalocyanine. Photochem. Photobiol. 50, 373-378, 1989 and Agarwal, M. L., Clay, M. E., Harvey, E. J., Evans, H. H., Antunez, A. R., and Oleinick, N. L. Photodynamic therapy induces rapid cell death by apoptosis in L5178Y mouse lymphoma cells. Cancer Res., 51, 5993-5996, 1991.
The cells were used while in exponential growth. Stock solutions of either 0.5 or 1 mM of PcIV, PcXII, PcX, PcXVIII were prepared in dimethylformamide unless otherwise indicated and added to the 10 mL medium at a rate of 1 μL per mL. After allowing 18 hours for uptake of the phthalocyanine into the cells, the flasks containing the cultures were placed on a glass exposure tray above a 500-W tungsten-halogen lamp. The exposure tray was fitted with a 600-nm high-pass filter. Flasks were exposed to various fluences of red light (up to 30 kJ/m^2) at a fluence rate of approximately 74 W/m^2). After irradiation, the cells were collected by centrifugation.
For measurement of clonogenic cell survival, aliquots were plated in medium containing soft agar as described in Ramakrishnan N., Oleinick, N. L. Clay, M. E., Horng, M. F., Antunez, A. R., and Evans H. H., DNA lesions and DNA degradation in mouse lymphoma L5178Y cells after photodynamic treatment sensitized by chloroaluminum phthalocyanine. Photochem. Photobiol. 50, 373-378, 1989. The aliquots were plated in sufficient numbers to produce 50-200 colonies. The dishes were kept in an incubator at 37° C. in an atmosphere of 5% CO2 and 95% air for 10-14 days to allow viable cells to form colonies. Colonies were counted by eye. Controls treated with the phthalocyanine alone had plating efficiencies of ~90%. The plating efficiencies of the treated cells are normalized to the plating efficiencies of control cells in each experiment. For measurement of the induction of apoptosis, DNA was isolated from the treated and control cells 2 hours after photodynamic therapy, subjected to electrophoresis on 1.5% agarose, stained with ethidium bromide, and visualized by UV transillumination, as described in Agarwal et. al. The results are shown in Tables 4, 5 and 6 and in FIG. 3.
Cells were treated with various concentrations of the compounds listed in the table and various light fluences. DNA gels were prepared and examined for the characteristic "ladder" pattern of DNA fragments. For each Pc, the minimum total PDT dose tested (calculated as the product of the minimum phthalocyanine concentration and the minimum fluence) which produced visible DNA fragments is recorded. […] PcXVIII was also added at 0.5 and 1.0 μM.

RIF-1 tumors = test: PDT of RIF-1 implanted tumors (Table 7); assay type: in vivo, C3H/HeN mice; conditions: 5 mg/kg in phosphate buffered saline; 675 nm, 135 J/cm^2
Procedure: The relative effectiveness at reducing tumor volume of selected phthalocyanine compounds at a given dosage was compared in vivo. RIF-1, i.e., radiation-induced fibrosarcoma, tumors were implanted into the backs of C3H/HeN mice. One tumor was implanted per mouse. Each of the phthalocyanine compounds listed in Table 7 was sonicated and vortexed in corn oil to produce a suspension. When the tumors reached […] in diameter and 2-3 mm in thickness, each mouse received 1 mg/kg in 0.1 ml of the corn oil, of the phthalocyanine suspension. For comparison, select mice received a conventional photosensitizer; either 5 mg/kg of chloroaluminum phthalocyanine tetrasulfonate, herein also referred to as "AlPcTS" in phosphate buffered saline or 5 mg/kg of Photofrin®-II in 5% dextrose. Twenty-four hours after the photosensitizers were administered, the tumors were irradiated with visible radiation delivered by an argon-pumped dye laser. The mice that received a phthalocyanine photosensitizer received light having a wavelength of 675 nm and the mice that received the Photofrin® II photosensitizer received light having a wavelength of 630 nm. Each tumor received 135 J/cm^2 of radiation. Tumor size was measured every day using calipers. The initial tumor volume was 50±10 mm^3. Tumor volume was calculated according to the hemiellipsoid model by the formula: [formula] Where l is length Where W is width

[3] = Cricetulus griseus, V79, 1 μM, at 10 kJ/m^2, read-out: Maximum Effect (% survival)
[4] = Cricetulus griseus, V79, 0.5 μM, at 10 kJ/m^2, read-out: Maximum Effect (% survival)

Compound: C[Si](C)(CCCN1CCOCC1)O[Si]1(O)n2c3c4ccccc4c2N=C2N=C(N=c4c5ccccc5c(n41)=NC1=NC(=N3)c3ccccc31)c1ccccc12 (stereo not shown) [Compound XIX, HOSiPcOSi(CH3)2 (CH2)3 NC4 H8 O]
- Cell survival at highest light dose at 1 µM (V79 cells [1]; [3]): 81%
- photosensitizing activity, killing V79 cells (in words) (V79 cells [1]; discussion of Table 3): less active as a photosensitizer
- uptake by V79 cells (in words) (V79 cells [2]): poor uptake
- Uptake into V79 cells (V79 cells [2]; 1 μM): 0.3 ± 0.1 n Moles/10^6 cells
- Uptake into V79 cells (V79 cells [2]; 4 μM): 2.4 ± 0.5 n Moles/10^6 cells
- dependence of uptake on phthalocyanine concentration (V79 cells [2]): not linearly dependent upon the phthalocyanine concentration
- Uptake into V79 cells, composite value (asterisk) (V79 cells [2]): 0.3 n Moles/10^6 cells/μM
- Uptake (from Table 2) (V79 cells [2]): 1.3 n Moles/10^6 cells/μM

Compound: C[Si](C)(CCCN=C=S)O[Si]1(O)n2c3c4ccccc4c2N=C2N=C(N=c4c5ccccc5c(n41)=NC1=NC(=N3)c3ccccc31)c1ccccc12 (stereo not shown) [Compound XXVI, HOSiPcOSi(CH3)2 (CH2)3 NCS]
- Cell survival at highest light dose at 1 µM (V79 cells [1]; Cricetulus griseus, V79, read-out: Maximum Effect (% survival)): 100%

Compound: CC(=O)OCCC[Si](C)(C)O[Si]1(O)n2c3c4ccccc4c2N=C2N=C(N=c4c5ccccc5c(n41)=NC1=NC(=N3)c3ccccc31)c1ccccc12 (stereo not shown) [Compound XIII, HOSiPcOSi(CH3)2 (CH2)3 OCOCH3]
- Cell survival at highest light dose at 1 µM (V79 cells [1]; Cricetulus griseus, V79, 1 μM, at 15 kJ/m^2, read-out: Maximum Effect (% survival)): 88%
- Uptake into V79 cells (V79 cells [2]; 4 μM): 1.7 ± 0.3 n Moles/10^6 cells
- Uptake into V79 cells, composite value (V79 cells [2]): 0.4 n Moles/10^6 cells/μM
- Uptake (from Table 2) (V79 cells [2]): 0.4 n Moles/10^6 cells/μM

Compound: C[Si](C)(CCCCNC(=S)N[C@@H]1O[C@H](CO)[C@@H](O)[C@H](O)[C@H]1O)O[Si]1(O[Si](C)(C)CCCCNC(=S)N[C@@H]2O[C@H](CO)[C@@H](O)[C@H](O)[C@H]2O)n2c3c4ccccc4c2N=C2N=C(N=c4c5ccccc5c(n41)=NC1=NC(=N3)c3ccccc31)c1ccccc12 [Compound XI, SiPc[OSi(CH3)2 (CH2)4 NHCSNHC6 H11l O5 ]2]
- Cell survival at highest light dose at 1 µM (V79 cells [1]; Cricetulus griseus, V79, 1 μM, at 20 kJ/m^2, read-out: Maximum Effect (% survival)): 100%
- induction of apoptosis (L5178Y cells): did not induce apoptosis
- Uptake into V79 cells (V79 cells [2]; 1 μM): 0.1 n Moles/10^6 cells
- Uptake into V79 cells (V79 cells [2]; 4 μM): 0.3 ± 0.1 n Moles/10^6 cells
- Uptake into V79 cells, composite value (V79 cells [2]): 0.1 n Moles/10^6 cells/μM
- Uptake (from Table 2) (V79 cells [2]): 0.1 n Moles/10^6 cells/μM

Compound: C[Si](C)(CCCN1CCSCC1)O[Si]1(O)n2c3c4ccccc4c2N=C2N=C(N=c4c5ccccc5c(n41)=NC1=NC(=N3)c3ccccc31)c1ccccc12 (stereo not shown) [Compound XXIV, HOSiPCOSi(CH3)2 (CH2)3 NC4 H8 S]
- Cell survival at highest light dose at 0.5 µM (V79 cells [1]; [4]): 100%
- Uptake into V79 cells (V79 cells [2]; 1 μM): 0.003 ± 0.001 n Moles/10^6 cells
- Uptake into V79 cells (V79 cells [2]; 4 μM): 1.3 ± 0.1 n Moles/10^6 cells
- dependence of uptake on phthalocyanine concentration (V79 cells [2]): not linearly dependent upon the phthalocyanine concentration
- Uptake into V79 cells, composite value (asterisk) (V79 cells [2]): < 0.05 n Moles/10^6 cells/μM
- Uptake (from Table 2) (V79 cells [2]): < 0.05 n Moles/10^6 cells/μM

Compound: C[Si](C)(CCCO)O[Si]1(O)n2c3c4ccccc4c2N=C2N=C(N=c4c5ccccc5c(n41)=NC1=NC(=N3)c3ccccc31)c1ccccc12 (stereo not shown) [Compound XVII, HOSiPCOSi(CH3)2 (CH2)3 OH]
- Cell survival at highest light dose at 1 µM (V79 cells [1]; [3]): 19%
- Uptake into V79 cells (V79 cells [2]; 4 μM): 1.7 ± 0.2 n Moles/10^6 cells
- Uptake into V79 cells, composite value (V79 cells [2]): 0.4 n Moles/10^6 cells/μM
- Uptake (from Table 2) (V79 cells [2]): 0.4 n Moles/10^6 cells/μM

Compound: CCCCN(CCCC)CCC[Si](C)(C)O[Si]1(O)n2c3c4ccccc4c2N=C2N=C(N=c4c5ccccc5c(n41)=NC1=NC(=N3)c3ccccc31)c1ccccc12 (stereo not shown) [Compound XXV, HOSiPcOSi(CH3)2 (CH2)3 N(CH2)3 CH3)2]
- Cell survival at highest light dose at 0.5 µM (V79 cells [1]; Cricetulus griseus, V79, 0.5 μM, at 8 kJ/m^2, read-out: Maximum Effect (% survival)): 87%
- Uptake into V79 cells (V79 cells [2]; 1 μM): 0.02 ± 0.02 n Moles/10^6 cells
- Uptake into V79 cells (V79 cells [2]; 4 μM): 1.5 ± 0.3 n Moles/10^6 cells
- dependence of uptake on phthalocyanine concentration (V79 cells [2]): not linearly dependent upon the phthalocyanine concentration
- Uptake into V79 cells, composite value (asterisk) (V79 cells [2]): < 0.05 n Moles/10^6 cells/μM
- Uptake (from Table 2) (V79 cells [2]): < 0.05 n Moles/10^6 cells/μM

Compound: CCN(CC)c1ccc2c(c1)Oc1cc(N(CC)CC)ccc1C21c2ccccc2C(=O)N1CCCC[Si](C)(C)O[Si]1(O[Si](C)(C)C(C)(C)C)n2c3c4ccccc4c2N=C2N=C(N=c4c5ccccc5c(n41)=NC1=NC(=N3)c3ccccc31)c1ccccc12 (stereo not shown) [Compound XV, (CH3)3 C(CH3)2 SiOSiPcOSi(CH3)2 (CH2)4 NCOC27 H30 N2 O]
- Cell survival at highest light dose at 4 µM (V79 cells [1]; Cricetulus griseus, V79, 4 μM, at 20 kJ/m^2, read-out: Maximum Effect (% survival)): 81%
- induction of apoptosis (L5178Y cells): did not induce apoptosis
- Uptake into V79 cells (V79 cells [2]; 1 μM): 0.01 ± 0.01 n Moles/10^6 cells
- Uptake into V79 cells (V79 cells [2]; 4 μM): 0.14 ± 0.12 n Moles/10^6 cells
- Uptake into V79 cells, composite value (V79 cells [2]): < 0.05 n Moles/10^6 cells/μM
- Uptake (from Table 2) (V79 cells [2]): 0.05 n Moles/10^6 cells/μM

Compound: CN(C)CCCCCCCC[Si](C)(C)O[Si]1(O)n2c3c4ccccc4c2N=C2N=C(N=c4c5ccccc5c(n41)=NC1=NC(=N3)c3ccccc31)c1ccccc12 (stereo not shown) [Compound XXII, HOSiPcOSi(CH3)2 (CH2)8 N(CH3)2]
- LD 90 (V79 cells [1]; 0.5 μM, 18 h, light dose killing 90% of cells): 10 kJ/m^2
- Minimum Demonstrated Condition to induce apoptosis: C × F (L5178Y cells; 0.5 μM): 5.0 μm × kJ/m^2
- Minimum Demonstrated Condition to induce apoptosis: Fluence (L5178Y cells; 0.5 μM): 10.0 kJ/m^2

Compound: chloroaluminum phthalocyanine tetrasulfonate [AlPcTS, reference compound]
- Doubling Time of Initial Tumor Volume after PDT (RIF-1 tumors): 7 days

Compound: CCCCN1CCN(CCC[Si](C)(C)O[Si]2(O)n3c4c5ccccc5c3N=C3N=C(N=c5c6ccccc6c(n52)=NC2=NC(=N4)c4ccccc42)c2ccccc23)CC1 (stereo not shown) [Compound XXXI, HOSiPCOSi(CH3)2 (CH2)3 NC4 H8 N(CH2)3 CH3]
- Cell survival at highest light dose at 0.5 µM (V79 cells [1]; [4]): 30%
- Uptake into V79 cells (V79 cells [2]; 2 μM): 0.61 ± 0.1 n Moles/10^6 cells
- Uptake into V79 cells, composite value (V79 cells [2]): 0.3 n Moles/10^6 cells/μM
- Uptake (from Table 2) (V79 cells [2]): 0.3 n Moles/10^6 cells/μM
